The values that follow come from PubChem BioAssay AID1259407 (Chemical Carcinogenesis Research Information System (CCRIS), 2018).

Structures are written as SMILES. Calls of active or inactive are those of the source. How the calls were made is not given here.

For this series, the system named is CCRIS mutagenicity, Ames/micronucleus/aberration tests. Kind of series: CCRIS mutagenicity studies.
Where [1] appears, read: Test System: AMES SALMONELLA TYPHIMURIUM, Strain/Indicator: TA98, Metabolic Activation: NONE, Method: STANDARD PLATE.
[2] abbreviates: Test System: AMES SALMONELLA TYPHIMURIUM, Strain/Indicator: TA100, Metabolic Activation: NONE, Method: STANDARD PLATE.
[3] abbreviates: Test System: AMES SALMONELLA TYPHIMURIUM, Strain/Indicator: TA1537, Metabolic Activation: NONE, Method: STANDARD PLATE.

As to `C=C1C/C(=C/C)C(=O)O[C@@H]2CCN3CC=C(COC(=O)[C@]1(C)O)[C@H]23`, the mutagenic call reads like this: (Test System: AMES SALMONELLA TYPHIMURIUM, Strain/Indicator: TA97, Metabolic Activation: HAMSTER, LIVER, S-9, AROCLOR 1254 (5, 10 OR 30%), Method: PREINCUBATION) “inactive; negative”; (Test System: AMES SALMONELLA TYPHIMURIUM, Strain/Indicator: TA97, Metabolic Activation: NONE, Method: PREINCUBATION) “inactive; negative”; (Test System: AMES SALMONELLA TYPHIMURIUM, Strain/Indicator: TA97, Metabolic Activation: RAT, LIVER, S-9, AROCLOR 1254 (5, 10 OR 30%), Method: PREINCUBATION) “inactive; negative”; (Test System: AMES SALMONELLA TYPHIMURIUM, Strain/Indicator: TA98, Metabolic Activation: HAMSTER, LIVER, S-9, AROCLOR 1254 (10%), Method: PREINCUBATION) “inactive; negative”; (Test System: AMES SALMONELLA TYPHIMURIUM, Strain/Indicator: TA98, Metabolic Activation: NONE, Method: PREINCUBATION) “inactive; negative”; (Test System: AMES SALMONELLA TYPHIMURIUM, Strain/Indicator: TA98, Metabolic Activation: RAT, LIVER, S-9, AROCLOR 1254 (10%), Method: PREINCUBATION) “inactive; negative”. In addition, the mutagenic call is, setting by setting: (Test System: AMES SALMONELLA TYPHIMURIUM, Strain/Indicator: TA100, Metabolic Activation: HAMSTER, LIVER, S-9, AROCLOR 1254 (5%), Method: PREINCUBATION) “inactive; negative”; (Test System: AMES SALMONELLA TYPHIMURIUM, Strain/Indicator: TA100, Metabolic Activation: HAMSTER, LIVER, S-9, AROCLOR 1254 (10 OR 30%), Method: PREINCUBATION) “active; positive”; (Test System: AMES SALMONELLA TYPHIMURIUM, Strain/Indicator: TA100, Metabolic Activation: HAMSTER, LIVER, S-9, PCB, Method: PREINCUBATION) “inactive; negative”; (Test System: AMES SALMONELLA TYPHIMURIUM, Strain/Indicator: TA100, Metabolic Activation: NONE, Method: PREINCUBATION) “inactive; negative”; (Test System: AMES SALMONELLA TYPHIMURIUM, Strain/Indicator: TA100, Metabolic Activation: RAT, LIVER, S-9, AROCLOR 1254 (5 OR 30%), Method: PREINCUBATION) “inactive; negative”; (Test System: AMES SALMONELLA TYPHIMURIUM, Strain/Indicator: TA100, Metabolic Activation: RAT, LIVER, S-9, AROCLOR 1254 (10%), Method: PREINCUBATION) “inactive; negative”. The mutagenic call (Test System: AMES SALMONELLA TYPHIMURIUM, Strain/Indicator: TA100, Metabolic Activation: RAT, LIVER, S-9, PCB, Method: PREINCUBATION) was “inactive; negative”; the mutagenic call (Test System: AMES SALMONELLA TYPHIMURIUM, Strain/Indicator: TA100, Metabolic Activation: RAT, LIVER, S-9, SODIUM PHENOBARBITAL AND BETA-NAPHTHOFLAVONE, Method: PREINCUBATION) was “inactive; negative”; the mutagenic call (Test System: AMES SALMONELLA TYPHIMURIUM, Strain/Indicator: TA1535, Metabolic Activation: HAMSTER, LIVER, S-9, AROCLOR 1254 (10%), Method: PREINCUBATION) was “inactive; negative”; the mutagenic call (Test System: AMES SALMONELLA TYPHIMURIUM, Strain/Indicator: TA1535, Metabolic Activation: NONE, Method: PREINCUBATION) is “inactive; negative”; the mutagenic call (Test System: AMES SALMONELLA TYPHIMURIUM, Strain/Indicator: TA1535, Metabolic Activation: RAT, LIVER, S-9, AROCLOR 1254 (10%), Method: PREINCUBATION) is “inactive; negative”; the mutagenic call (Test System: UDS HAMSTER HEPATOCYTES, Strain/Indicator: THY INCORP, Metabolic Activation: NONE, Method: AUTORADIOGRAPHY) is “active; positive”. The mutagenic call reads like this: (Test System: UDS MOUSE HEPATOCYTES, Strain/Indicator: THY INCORP, Metabolic Activation: NONE, Method: AUTORADIOGRAPHY) “active; positive”; (Test System: UDS RAT HEPATOCYTES, Strain/Indicator: THY INCORP, Metabolic Activation: NONE, Method: AUTORADIOGRAPHY) “active; positive”.

In the case of `C`, the mutagenic call was “inactive; negative. material tested was baytubes, multi-walled carbon-nanotubes” (End Point: In vitro chromosomal aberrations, Test System: Chinese hamster V79 lung fibroblast cells, Metabolic Activation: Rat, Liver, S9, Aroclor 1254); “inactive; negative. material tested was baytubes, multi-walled carbon-nanotubes” (Test System: Ames Salmonella typhimurium, Strain/Indicator: TA98, Metabolic Activation: None, Method: Preincubation); “inactive; negative. material tested was baytubes, multi-walled carbon-nanotubes” (Test System: Ames Salmonella typhimurium, Strain/Indicator: TA98, Metabolic Activation: Rat, Liver, S9, Aroclor 1254, Method: Preincubation); “inactive; negative. material tested was baytubes, multi-walled carbon-nanotubes” (Test System: Ames Salmonella typhimurium, Strain/Indicator: TA100, Metabolic Activation: None, Method: Preincubation); “inactive; negative. material tested was baytubes, multi-walled carbon-nanotubes” (Test System: Ames Salmonella typhimurium, Strain/Indicator: TA100, Metabolic Activation: Rat, Liver, S9, Aroclor 1254, Method: Preincubation); “inactive; negative. material tested was baytubes, multi-walled carbon-nanotubes” (Test System: Ames Salmonella typhimurium, Strain/Indicator: TA102, Metabolic Activation: None, Method: Preincubation). For the same molecule, the mutagenic call (Test System: Ames Salmonella typhimurium, Strain/Indicator: TA102, Metabolic Activation: Rat, Liver, S9, Aroclor 1254, Method: Preincubation) is “inactive; negative. material tested was baytubes, multi-walled carbon-nanotubes”; the mutagenic call (Test System: Ames Salmonella typhimurium, Strain/Indicator: TA1535, Metabolic Activation: None, Method: Preincubation) is “inactive; negative. material tested was baytubes, multi-walled carbon-nanotubes”; the mutagenic call (Test System: Ames Salmonella typhimurium, Strain/Indicator: TA1535, Metabolic Activation: Rat, Liver, S9, Aroclor 1254, Method: Preincubation) is “inactive; negative. material tested was baytubes, multi-walled carbon-nanotubes”; the mutagenic call (Test System: Ames Salmonella typhimurium, Strain/Indicator: TA1537, Metabolic Activation: None, Method: Preincubation) was “inactive; negative. material tested was baytubes, multi-walled carbon-nanotubes”; the mutagenic call (Test System: Ames Salmonella typhimurium, Strain/Indicator: TA1537, Metabolic Activation: Rat, Liver, S9, Aroclor 1254, Method: Preincubation) is “inactive; negative. material tested was baytubes, multi-walled carbon-nanotubes”.

On to `CCCCC(CC)COC(=O)c1ccc(C(=O)OCC(CC)CCCC)cc1` (stereo unspecified), for which the mutagenic call reads like this: under setting [1], “inactive; negative”; (Test System: AMES SALMONELLA TYPHIMURIUM, Strain/Indicator: TA98, Metabolic Activation: RAT, LIVER, S-9, Method: STANDARD PLATE) “inactive; negative”; under setting [2], “inactive; negative”; (Test System: AMES SALMONELLA TYPHIMURIUM, Strain/Indicator: TA100, Metabolic Activation: RAT, LIVER, S-9, Method: STANDARD PLATE) “inactive; negative”; (Test System: AMES SALMONELLA TYPHIMURIUM, Strain/Indicator: TA1535, Metabolic Activation: NONE, Method: STANDARD PLATE) “inactive; negative”; (Test System: AMES SALMONELLA TYPHIMURIUM, Strain/Indicator: TA1535, Metabolic Activation: RAT, LIVER, S-9, Method: STANDARD PLATE) “inactive; negative”. Further, the mutagenic call was “inactive; negative” under setting [3]; “inactive; negative” (Test System: AMES SALMONELLA TYPHIMURIUM, Strain/Indicator: TA1537, Metabolic Activation: RAT, LIVER, S-9, Method: STANDARD PLATE); “inactive; negative” (Test System: AMES SALMONELLA TYPHIMURIUM, Strain/Indicator: TA1538, Metabolic Activation: NONE, Method: STANDARD PLATE); “inactive; negative” (Test System: AMES SALMONELLA TYPHIMURIUM, Strain/Indicator: TA1538, Metabolic Activation: RAT, LIVER, S-9, Method: STANDARD PLATE); “inactive; negative” (Test System: CHINESE HAMSTER OVARY, Strain/Indicator: CHO-K1-BH4 (HGPRT)/6-THIOGUANINE, Metabolic Activation: NONE); “inactive; negative” (Test System: CHINESE HAMSTER OVARY, Strain/Indicator: CHO-K1-BH4 (HGPRT)/6-THIOGUANINE, Metabolic Activation: RAT, LIVER, S-9).

`c1ccc([C@H]2N[C@H]2c2ccccc2)cc1`: the mutagenic call reads like this: under setting [1], “inactive; negative”; under setting [2], “active; positive”; under setting [3], “inactive; negative”.
